# Tested on: ERCC1 or XPF levels in A549 cells
# Assay: Western blot of ERCC1 and XPF protein levels (PLA control)
# Type: cell-based, human
# Settings: 2 µM, 24 h
# Protocol: page 1: Supplementary Material […] Supplementary Figure 1. ERCC1-XPF mediated cleavage of the stem-loop DNA substrate, in which the FAM signal is quenched, releases the fluorescently tagged octanucleotide. Triplicate measurements of the control (DMSO) and the effect of 10 μM of compounds 4 and 6 on the incision activity is shown. 2 PLA Control Experiments Supplementary Figure 2. A549 cells were seeded in 6-well culture dishes (Thermo Fishes Scientific) at a density of 0.3 X 10^6 cells/well in a final volume of 3 ml. […] The chambers were incubated for 24 h and then washed with PBS and the cells were solubilized with RIPA buffer in the presence of protease inhibitor cocktail (Cell Signaling Technology) plus 2 mM EDTA. […] EpiGentek), XPF (LS- C173159, 1:1000; LifeSpan BioSciences, Seattle, WA) and B-Actin (sc-47778, 1:1000; Santa Cruz) primary antibodies followed by secondary anti-mouse or anti-rabbit secondary HRP-conjugated secondary antibodies. ECL chemiluminescent substrate (Promega) was used to detect the proteins. 3 Cytotoxicity Analysis Supplementary Figure 3. Cytotoxicity assay using colony forming assay 4 HCT-116 Derived XPF Knockout Cells For CRISPR deletion of XPF from HCT-116 cells, the pSpCas9(BB)-2A-GFP (pX458) vector (Addgene plasmid # 48138) was used. The short guide sequence to target XPF exon one was: 5'- [NT] 3' and target XPF exon eight was: 5'- [NT]3'. […]
smiles,measurement,value
COc1ccc2nc3cc(Cl)ccc3c(Nc3ccc(O)c(CN4CCN(CCN(C(C)C)C(C)C)CC4)c3)c2c1 [Compound 6],levels of ERCC1 or XPF vs untreated cells,no significant differences

# Source: PMC8968952, “Modulation of ERCC1-XPF Heterodimerization Inhibition via Structural Modification of Small Molecule Inhibitor Side-Chains” (Frontiers in Oncology, 2022)
